Patent EP3839043A1, “SCREENING METHODS FOR COMPOUNDS MODULATING POLYAMINE TRANSPORT” (Katholieke Universiteit Leuven, priority 2019, dated 2021)

Tests used:
SH-SY5Y cells [1] = conditions: KO and KO/D508N cells; 10 µM SPM, 4 h
Description: FITC-dextran based lysosomal pH - SH-SY5Y cells were seeded in 12-well plates (1.0 X 10^5 cells per well) and allowed to adhere overnight. Cells were exposed to 50 µg/ml FITC-dextran for 72 h. Samples were then washed, placed in fresh media and treated with SPM (10 µM) alone or in combination with acidic nanoparticles (180 ng/ml, 1 h pre-incubation) for 4 h. Samples were then collected by centrifugation (450 x g, 5 min) and washed in PBS. Cells were finally resuspended in 500 µl of PBS containing 1% BSA and FITC dual emission assessed by flow cytometry (excitation 488 nm, emission 530 (BL1) and 600 (BL2)) using an Attune NXT flow cytometer (Invitrogen). The emission (BL1/BL2) of all samples were compared to a standard curve, whereby signals were obtained from control cells resuspended in monensin (100 µM) containing Britton Robinson buffer with increasing pH (3.0-8.0).

D508N mutant = D508N mutant (Homo sapiens, UniProt Q9NQ11, D513N); conditions: 100 µM SPM
Description: Membrane fractionation - Transduced SH-SY5Y cells were seeded in […] at a density of 6 x 10^6 cells per plate. 24 h later, the cells were harvested following trypsinization and brief centrifugation (300 x g, 5 min). Subcellular fractionation was performed by differential centrifugation. The microsomal protein concentration was measured using the bicinchoninic acid assay (Thermo Fischer Scientific, Pierce) according to the manufacturer's instructions.
ATPase assay - The ATPase activity of ATP13A2 was assessed using a commercially available luminescence assay (ADP-Glo Max assay, Promega) that monitors the production of ADP via luciferase activity. The reactions were performed for 30 min (37°C) in a final volume of 25 µl. The assay reaction mixture contained 50 mM MOPS-KOH (pH 7), 100 mM KCI, 11 mM MgCl2, 1 mM DTT, 195 µM DDM, various concentrations of the indicated compound, and either microsomes (5 µg) harvested from SH-SY5Y cells overexpressing ATP13A2 (WT or mutants) or purified ATP13A2 (0.5 µg). When purified ATP13A2 was used, we included 125 µM PA, 125 µM PI(3,5)P2 and 19.5 µM DDM in the reaction buffer. […] After 40 min, luminescence was detected using a FlexStation 3.0 system (Molecular Devices). Dose-response curves and n/Km/Vmax values were calculated using GraphPad Prism Software (GraphPad Software Inc.).

SH-SY5Y cells [2] = conditions: KO and KO/D508N cells; SPM 10 µM, 4 h
Description: BODIPY-SPM localization and lysosomal rupture analysis - For all immunofluorescent stainings SH-SY5Y cell lines were seeded in 12-well plates (0.25 X 10^5 cells per well on coverslips) and the next day, the cells were incubated with the indicated compounds for 4 h at 37°C. For BODIPY-SPM analysis, cells were pulsed with 5 µM SPM for 15 min, washed and chased in fresh media for a further 1 h and 45 min at 37°C. Following treatments, the cells were washed twice in PBS, fixed in 4% paraformaldehyde for 30 min (37°C), washed in PBS and stored at 4°C. For immunofluorescence staining, the cells were washed in PBS containing 0.5% Tween 20 (PBS-T), permeabilized in PBS containing 0.1% Triton X-100 (30 min) and blocked first in 0.1 M glycine and then in PBS-T containing 1% fetal calf serum and 10% BSA. Gal-3-, LAMP1- and cathepsin B-specific antibodies were used at a dilution of 1:100-200 (in PBS-T containing 1% BSA) overnight at 4°C. Subsequently, the samples were washed and incubated with Alexa Fluor™ secondary antibody (1:1,000, 30 min). To assess FITC-dextran release, cells were loaded with 50 µg/ml FITC-dextran for 72 h, cells were then washed and placed in fresh media for 1 h prior to SPM (10 µM) addition. To visualize the nucleus, all samples were stained with DAPI. […]

SH-SY5Y cells [3] = tested on: SH-SY5Y cells
Description: PI exclusion assay - Cells were seeded in 12-well plates (1.0 X 10^5 cells per well) and the next day, the cells were treated with increasing doses of SPM, alone or in combination with the CTSB inhibitor CA-074 (25 µM, 1 h pre-incubation) or acidic nanoparticles (180 ng/ml, 1 h pre-incubation), and incubated for 24 h at 37°C. Thereafter, the cells were harvested following trypsinization and a brief centrifugation (300 x g; 5 min), washed with PBS and stained with 1 µg/ml PI (in PBS containing 1% BSA). An Attune Nxt (Thermo Fischer Scientific) flow cytometer was used to determine the proportion of PI-positive cells (10,000 events per treatment).

cathepsin B (CTSB) = conditions: toxic SPM levels (10 µM, 4 h)
Description: (§1) Cathepsin activity assays - SH-SY5Y cells were seeded in 10 cm^2 plates (2 X 10^6 cells per plate) and allowed to adhere overnight prior to treatment with 10 µM SPM for 4 h at 37°C. For samples requiring acidic nanoparticle addition, 180 ng/ml nanoparticles were added 1 h prior to SPM addition. Next, the samples were harvested using TRYPLE and a brief centrifugation (300 x g; 5 min). CTSB (ab65300) and CTSD (ab65302) activities were assessed using commercially available kits (Abcam) according to the manufacturer's instructions. MFI were acquired using a FlexStation 3.0 multi-well plate reader (Molecular Devices).

cathepsin D (CTSD) = conditions: toxic SPM levels (10 µM, 4 h)
Description: as §1

Purified ATP13A2 = target: T1, Purified ATP13A2 (Homo sapiens, UniProt Q9NQ11); conditions: 1 mM SPM
T1 sequence (Q9NQ11 1-1175 isoform Q9NQ11-3): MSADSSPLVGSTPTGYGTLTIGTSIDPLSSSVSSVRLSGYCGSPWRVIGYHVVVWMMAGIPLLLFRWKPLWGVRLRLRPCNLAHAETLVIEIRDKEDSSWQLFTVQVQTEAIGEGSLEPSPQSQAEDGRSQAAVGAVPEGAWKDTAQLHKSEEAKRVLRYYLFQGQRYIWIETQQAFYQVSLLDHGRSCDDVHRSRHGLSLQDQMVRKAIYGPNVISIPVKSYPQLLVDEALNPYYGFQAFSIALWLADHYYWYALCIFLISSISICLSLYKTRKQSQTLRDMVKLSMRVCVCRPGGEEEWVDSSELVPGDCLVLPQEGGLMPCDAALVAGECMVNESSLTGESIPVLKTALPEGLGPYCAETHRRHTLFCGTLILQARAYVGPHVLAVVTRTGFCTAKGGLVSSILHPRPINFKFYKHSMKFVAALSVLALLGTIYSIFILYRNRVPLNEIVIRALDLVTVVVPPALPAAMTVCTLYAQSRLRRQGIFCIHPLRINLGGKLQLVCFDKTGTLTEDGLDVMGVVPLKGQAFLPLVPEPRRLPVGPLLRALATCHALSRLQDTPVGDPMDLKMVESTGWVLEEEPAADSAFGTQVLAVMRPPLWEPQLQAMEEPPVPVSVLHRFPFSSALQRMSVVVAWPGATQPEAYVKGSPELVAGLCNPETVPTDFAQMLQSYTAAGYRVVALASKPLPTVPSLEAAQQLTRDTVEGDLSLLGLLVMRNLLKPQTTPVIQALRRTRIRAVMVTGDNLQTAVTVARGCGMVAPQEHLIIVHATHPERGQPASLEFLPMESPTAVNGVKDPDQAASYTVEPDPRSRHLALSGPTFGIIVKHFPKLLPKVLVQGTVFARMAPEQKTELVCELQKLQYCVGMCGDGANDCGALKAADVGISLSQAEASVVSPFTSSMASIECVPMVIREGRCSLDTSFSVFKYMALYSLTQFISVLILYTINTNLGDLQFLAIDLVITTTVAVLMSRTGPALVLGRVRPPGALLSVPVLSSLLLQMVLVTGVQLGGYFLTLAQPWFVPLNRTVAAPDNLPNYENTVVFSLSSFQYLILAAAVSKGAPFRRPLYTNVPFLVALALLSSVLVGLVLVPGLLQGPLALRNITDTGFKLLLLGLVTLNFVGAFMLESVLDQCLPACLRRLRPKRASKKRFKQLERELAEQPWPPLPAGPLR
Description: (§2) PLoS One 13, e0193228, (2018)].
(§3) In case of purified ATP13A2, 125 µM PA and 125 µM PI(3,5)P2 were included in the reaction mixture. To determine the sensitivity of the ATP13A2 phosphoenzyme to ATP or a combination of ATP and SPM, 30 s after adding ^32P-ATP, samples were incubated with non-radioactive ATP (5 mM in experiments using microsomes, 1 mM when purified ATP13A2 was used) and SPM (1 mM) before the reaction was stopped at indicated time points. The incorporation of ^32P was visualized following SDS-PAGE under acidic conditions and subsequently detected by autoradiography (microsomes) or liquid scintillation counting (purified ATP13A2) (Liquid Scintillation Analyzer TRI-CARB 2900TR).

ATP13A2 = ATP13A2 (Homo sapiens, UniProt Q9NQ11)
Description: as §2, §3

Chain of D508N mutant (Q9NQ11 1-1175 isoform Q9NQ11-3 D508N): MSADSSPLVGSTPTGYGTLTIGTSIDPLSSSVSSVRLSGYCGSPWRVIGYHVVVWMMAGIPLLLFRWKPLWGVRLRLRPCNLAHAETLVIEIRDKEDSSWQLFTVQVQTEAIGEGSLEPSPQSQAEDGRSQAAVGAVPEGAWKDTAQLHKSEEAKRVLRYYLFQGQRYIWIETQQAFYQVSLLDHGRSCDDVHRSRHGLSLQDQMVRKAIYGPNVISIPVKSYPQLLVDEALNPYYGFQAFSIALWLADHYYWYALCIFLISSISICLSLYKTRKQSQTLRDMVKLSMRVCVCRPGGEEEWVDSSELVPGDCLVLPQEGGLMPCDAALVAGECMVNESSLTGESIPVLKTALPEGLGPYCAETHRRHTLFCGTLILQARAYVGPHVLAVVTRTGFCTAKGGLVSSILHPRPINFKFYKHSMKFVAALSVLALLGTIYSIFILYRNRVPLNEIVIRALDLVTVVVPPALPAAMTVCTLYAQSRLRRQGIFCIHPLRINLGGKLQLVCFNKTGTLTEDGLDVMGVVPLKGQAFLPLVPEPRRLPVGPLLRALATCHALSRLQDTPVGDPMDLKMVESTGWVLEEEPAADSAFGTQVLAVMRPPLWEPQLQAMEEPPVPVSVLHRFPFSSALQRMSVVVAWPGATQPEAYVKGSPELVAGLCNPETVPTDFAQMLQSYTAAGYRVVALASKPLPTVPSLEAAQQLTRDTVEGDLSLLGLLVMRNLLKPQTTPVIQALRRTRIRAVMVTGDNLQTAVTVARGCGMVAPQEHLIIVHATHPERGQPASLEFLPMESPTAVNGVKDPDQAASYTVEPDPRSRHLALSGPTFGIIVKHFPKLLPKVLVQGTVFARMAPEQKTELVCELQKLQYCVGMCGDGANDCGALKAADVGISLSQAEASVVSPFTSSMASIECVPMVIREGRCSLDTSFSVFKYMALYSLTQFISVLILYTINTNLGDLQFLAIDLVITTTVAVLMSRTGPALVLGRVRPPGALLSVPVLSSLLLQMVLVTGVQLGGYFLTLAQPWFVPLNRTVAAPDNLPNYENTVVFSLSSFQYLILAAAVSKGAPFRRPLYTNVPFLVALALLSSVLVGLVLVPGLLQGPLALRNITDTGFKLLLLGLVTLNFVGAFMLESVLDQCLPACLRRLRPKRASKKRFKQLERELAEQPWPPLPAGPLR

## NCCCNCCCCNCCCN [Spermine, spermine]
SH-SY5Y cells [1]
  lysosomal pH: further increased
D508N mutant
  ATPase activity of D508N mutant: had no effect
SH-SY5Y cells [2]
  endogenous Gal-3 punctae: increased both the number and size
SH-SY5Y cells [3]
  cell death: increase in cell death
Cathepsin B (CTSB)
  cathepsin B (CTSB) activity: increased
Cathepsin D (CTSD)
  cathepsin D (CTSD) activity: decreased
Purified ATP13A2
  dephosphorylation of purified WT after chase with cold ATP: clearly stimulates dephosphorylation
ATP13A2; WT-OE microsomes 20 µg, 60 s with [γ-32P] ATP
  ATP13A2 phospho-enzyme levels: dose-dependent reduction
ATP13A2; WT-OE microsomes, 1 mM SPM
  dephosphorylation rate following a chase with non-radioactive ATP: significantly higher dephosphorylation rate
